According to US11660293B2, “Substituted 2-azabicyclo[3.1.1]heptane and 2-azabicyclo[3.2.1]octane derivatives as orexin receptor antagonists” (Chronos Therapeutics Limited, priority 2017, dated 2023):

How the values were obtained:
[1] = target: human Orexin type 2 receptors (Homo sapiens (Human), UniProt O43614); test: Scintillation Proximity Assay (SPA) binding assay, [3H]EMPA displacement, HEK-hOX2 membranes
Description: Scintillation Proximity Assay (SPA) Binding Assays
CHO cells stably transfected with human Orexin type 1 receptors (CHO-hOX1) or HEK-293 cells transiently transfected with human Orexin type 2 receptors (HEK-hOX2) were collected after 16 h induction with 5 mM sodium butyrate. The cell pellets were re-suspended, homogenized in 15 mM Tris/HCl pH=7.5, 1 mM EGTA, 0.3 mM EDTA, 2 mM MgCl2, protease inhibitors and centrifuged at 40,000 g (20 min, 4° C.). After re-suspension, homogenization and centrifugation as above, the final pellets were re-suspended in 75 mM Tris/HCl pH=7.5, 1 mM EGTA, 0.3 mM EDTA, 12.5 mM MgCl2, 250 mM Sucrose, protease inhibitors, divided into aliquots and frozen down at −80° C.
CHO-hOX1 cell membranes (6 μg ml^−1) or HEK-hOX2 membranes (8 μg ml^−1) were pre-coupled with 1.0 mg ml^−1 of Wheatgerm Agglutinin-coated Yttrium Silicate (YSi-WGA) SPA beads (Perkin Elmer) in buffer containing 25 mM HEPES pH=7.4, 1 mM CaCl2), 5 mM MgCl2, 0.01% (w/v) BSA, 0.02% (w/v) Pluronic F-127 by shaking at room temperature for 2.5-3 h.
(§1) The binding was performed in a final volume of 200 μl. 100 μl of hOX1 or hOX2 beads-membranes suspension were added to 100 μl of [^3H]SB-674042 or [^3H]EMPA solutions (radioligand concentration 2 nM final in the assay), into the 96-well Isoplates containing the 2 μl/well of compounds to be tested. Nonspecific binding was measured in the presence of 1 μM Almorexant. Assay plates were then incubated at room temperature for 3 h before being counted in a Microbeta scintillation counter (PerkinElmer).
Data were analysed by non-linear regression analysis using XLfit Software.

[2] = target: human Orexin type 1 receptors (Homo sapiens (Human), UniProt O43613); test: Scintillation Proximity Assay (SPA) binding assay, [3H]SB-674042 displacement, CHO-hOX1 membranes
Description: as §1, with “Scintillation Proximity Assay (SPA) Binding Assays CHO cells stably transfected with human Orexin type 1 receptors (CHO-hOX1) or HEK-293 cells transiently transfected with human Orexin type 2 receptors (HEK-hOX2) were collected after 16 h induction with 5 mM sodium butyrate. […] The” for “The”, “(PerkinElmer). Data were analysed by non-linear regression analysis using XLfit Software.” for “(PerkinElmer).”

Sequence of human Orexin type 1 receptors (O43613 whole entry): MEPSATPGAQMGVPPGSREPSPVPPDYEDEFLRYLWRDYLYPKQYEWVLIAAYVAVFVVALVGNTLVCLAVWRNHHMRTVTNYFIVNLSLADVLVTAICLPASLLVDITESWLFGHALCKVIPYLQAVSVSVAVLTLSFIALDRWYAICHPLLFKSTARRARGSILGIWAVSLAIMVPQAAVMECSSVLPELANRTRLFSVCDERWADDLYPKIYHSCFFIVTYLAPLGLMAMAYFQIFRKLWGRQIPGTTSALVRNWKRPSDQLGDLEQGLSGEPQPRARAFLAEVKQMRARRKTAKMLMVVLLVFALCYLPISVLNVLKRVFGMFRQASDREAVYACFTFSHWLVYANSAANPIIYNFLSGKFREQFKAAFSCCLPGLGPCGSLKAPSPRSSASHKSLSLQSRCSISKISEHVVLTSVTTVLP
Sequence of human Orexin type 2 receptors (O43614 whole entry): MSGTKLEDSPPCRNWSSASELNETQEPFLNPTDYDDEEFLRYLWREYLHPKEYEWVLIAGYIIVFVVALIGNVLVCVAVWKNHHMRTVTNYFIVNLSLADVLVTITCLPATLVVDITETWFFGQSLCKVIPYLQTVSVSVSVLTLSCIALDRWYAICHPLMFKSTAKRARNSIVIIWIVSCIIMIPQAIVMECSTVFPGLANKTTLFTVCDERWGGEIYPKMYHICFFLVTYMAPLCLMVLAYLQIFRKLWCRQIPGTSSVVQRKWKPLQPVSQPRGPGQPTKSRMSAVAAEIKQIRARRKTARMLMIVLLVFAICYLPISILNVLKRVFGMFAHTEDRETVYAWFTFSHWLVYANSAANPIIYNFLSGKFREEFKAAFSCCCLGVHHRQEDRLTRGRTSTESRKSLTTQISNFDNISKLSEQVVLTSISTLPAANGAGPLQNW

| SMILES | OX2 pKi (SPA binding) ([1]; Table 1, [3H]EMPA 2 nM) | OX1 pKi (SPA binding) ([2]; Table 1, [3H]SB-674042 2 nM) | OX2 pKi (SPA binding) ([1]; Table 2, [3H]EMPA 2 nM) | OX1 pKi (SPA binding) ([2]; Table 2, [3H]SB-674042 2 nM) |
| --- | --- | --- | --- | --- |
| Cc1ccc(-n2nccn2)c(C(=O)N2C3CC(C3)[C@H](C)C2COc2nc3ccc(F)cc3s2)n1 (stereo partly drawn) [Example 110, trans-6-fluoro-2-({4-methyl-2-[6-methyl-3-(2H-1,2,3-triazol-2-yl)pyridine-2-carbonyl]-2-azabicyclo[3.1.1]heptan-3-yl}methoxy)-1,3-benzothiazole] | 6.06 | 7 | – | – |
| Cc1ccc(-n2nccn2)c(C(=O)N2C3CC(C3)[C@H](C)C2CNc2ncc3ccccc3n2)n1 (stereo partly drawn) [Example 149, trans-N-({4-methyl-2-[6-methyl-3-(2H-,2,3-triazol-2-yl)pyridine-2-carbonyl]-2-azabicyclo[3.1.1]heptan-3-yl}methyl)quinazolin-2-amine] | – | – | 5.72 | 6.82 |
| Cc1ccc(-n2nccn2)c(C(=O)N2C3CC(C3)[C@@H](C)C2CNc2nc3ccc(F)cc3o2)n1 (single isomer, unassigned) [Example 219, 6-fluoro-N-{[(3S,4R) or (3R,4S)-4-methyl-2-[6-methyl-3-(2H-1,2,3-triazol-2-yl)pyridine-2-carbonyl]-2-azabicyclo[3.1.1]heptan-3-yl]methyl}-1,3-benzoxazol-2-amine] | – | – | 5.79 | 8.71 |
| Cc1ccc(-c2ncccn2)c(C(=O)N2C3CC(C3)[C@H](C)C2COc2ccc(Cl)cn2)n1 (mixture of isomers) [Example 118, trans-3-{[(5-chloropyridin-2-yl)oxy]methyl}-4-methyl-2-[6-methyl-3-(pyrimidin-2-yl)pyridine-2-carbonyl]-2-azabicyclo[3.1.1]heptane] | – | – | 5.75 | 7.39 |
| CCOc1ccc(C)nc1C(=O)N1C2CC(C2)[C@@H](C)C1CNc1nc2ccc(F)cc2s1 (mixture of isomers) [Example 174, cis-N-{[2-(3-ethoxy-6-methylpyridine-2-carbonyl)-4-methyl-2-azabicyclo[3.1.1]heptan-3-yl]methyl}-6-fluoro-1,3-benzothiazol-2-amine] | – | – | 7.06 | 8.82 |
| Cc1nc(C(=O)N2C(COc3cnc4ccccc4n3)CC3CC2C3)c(-c2ccccc2)s1 (stereo not shown) [Example 58] | 6.76 | 7.4 | – | – |
| Cc1ccc(-n2cccn2)c(C(=O)N2C3CC(C3)[C@H](C)C2COc2ccc(F)cc2)n1 (mixture of isomers) [Example 122, trans-3-[(4-fluorophenoxy)methyl]-4-methyl-2-[6-methyl-3-(1H-pyrazol-1-yl)pyridine-2-carbonyl]-2-azabicyclo[3.1.1]heptane] | – | – | 5.4 | 7.22 |
| Cc1ccc(-n2nccn2)c(C(=O)N2C3CC(C3)[C@@H](C)C2COc2ccc(F)cc2)n1 (stereo partly drawn) [Example 95, cis-3-[(4-fluorophenoxy)methyl]-4-methyl-2-[6-methyl-3-(2H-1,2,3-triazol-2-yl)pyridine-2-carbonyl]-2-azabicyclo[3.1.1]heptane] | 6.6 | 8.09 | – | – |
| C[C@@H]1C2CC(C2)N(C(=O)c2cc(C#N)ccc2-n2nccn2)C1CNc1cnc2cc(F)ccc2n1 (mixture of isomers) [Example 238, cis-3-(3-{[(6-fluoroquinoxalin-2-yl)amino]methyl}-4-methyl-2-azabicyclo[3.1.1]heptane-2-carobnyl)-4-(2H-1,2,3-triazol-2-yl)benzonitrile] | – | – | 6.32 | 7.98 |
| Cc1ccc(-n2nccn2)c(C(=O)N2C(COc3ccc(F)cc3)CC3CC2C3)n1 (stereo not shown) [Example 39] | 6.19 | 7.64 | – | – |
| C[C@@H]1C2CC(C2)N(C(=O)c2ccc(Cl)cc2-n2nccn2)C1CNc1cnc(C(F)(F)F)cn1 (mixture of isomers) [Example 246, cis-N-({2-[4-chloro-2-(2H-1,2,3-triazol-2-yl)benzoyl]-4-methyl-2-azabicyclo[3.1.1]heptan-3-yl}methyl)-5-(trifluoromethyl)pyrazin-2-amine] | – | – | 5.61 | 7.57 |
| C[C@@H]1C2CC(C2)N(C(=O)c2cc(F)ccc2-n2nccn2)C1CNc1ncc(C2CC2)cn1 (stereo partly shown) [Example 260] | – | – | 4.89 | 7.45 |
| Cc1ccc(-n2nccn2)c(C(=O)N2C3CC(C3)[C@@H](C)C2CNc2nc3cccnc3s2)n1 (stereo partly drawn) [Example 184, cis-N-({4-methyl-2-[6-methyl-3-(2H-1,2,3-triaozl-2-yl)pyridine-2-carbonyl]-2-azabicyclo[3.1.1]heptan-3-yl}methyl)-[1,3]thiazolo[5,4-b]pyridin-2-amine] | – | – | 5.07 | 8.08 |
| Cc1ccc(-n2nccn2)c(C(=O)N2C3CC(C3)[C@@H](C)C2CNc2cnc3ccccc3n2)n1 (single isomer, unassigned) [Example 160, N-{[(3R,4S) or (3S,4R)-4-methyl-2-[6-methyl-3-(2H-1,2,3-triazol-2-yl)pyridine-2-carbonyl]-2-azabicyclo[3.1.1]heptan-3-yl]methyl}quinoxalin-2-amine] | – | – | 5.98 | 8.68 |
| C[C@@H]1C2CC(C2)N(C(=O)c2cc(Cl)ccc2-n2nccn2)C1CNc1nc2cccnc2o1 (mixture of isomers) [Example 242, cis-N-({2-[5-chloro-2-(2H-1,2,3-triazol-2-yl)benzoyl]-4-methyl-2-azabicyclo[3.1.1]heptan-3-yl}methyl)-[1,3]oxazolo[5,4-b]pyridin-2-amine] | – | – | 5.14 | 8.1 |
| Cc1nc(C(=O)N2C3CC(C3)[C@@H](C)C2COc2ccc(F)cc2)c(-n2cccn2)s1 (mixture of isomers) [Example 141, cis-3-[(4-fluorophenoxy)methyl]-4-methyl-2-[2-methyl-5-(1H-pyrazol-1-yl)-1,3-thiazole-4-carbonyl]-2-azabicyclo[3.1.1]heptane] | – | – | 6.45 | 6.91 |
| C[C@@H]1C2CC(C2)N(C(=O)c2cc(Cl)ccc2-n2nccn2)C1CNc1ccc(C(F)(F)F)nn1 (stereo partly drawn) [Example 247, cis-N-({2-[5-chloro-2-(2H-1,2,3-triazol-2-yl)benzoyl]-4-methyl-2-azabicyclo[3.1.1]heptan-3-yl}methyl)-6-(trifluoromethyl)pyridazin-3-amine] | – | – | 4.88 | 6.74 |
| Cc1nc(C(=O)N2C3CC(C3)[C@H](C)C2COc2ccc(F)cc2)c(-c2ccccn2)s1 (mixture of isomers) [Example 123, trans-3-[(4-fluorophenoxy)methyl]-4-methyl-2-[2-methyl-5-(pyridin-2-yl)-1,3-thiazole-4-carbonyl]-2-azabicyclo[3.1.1]heptane] | – | – | 6.12 | 8.02 |
| Cc1ccc(-n2ncc(C)n2)c(C(=O)N2C3CC(C3)[C@@H](C)C2COc2ccc(F)cc2)n1 (mixture of isomers) [Example 144, cis-3-[(4-fluorophenoxy)methyl]-4-methyl-2-[6-methyl-3-(4-methyl-2H-1,2,3-triazol-2-yl)pyridine-2-carbonyl]-2-azabicyclo[3.1.1]heptane] | – | – | 6.83 | 7.96 |
| Cc1nc(C(=O)N2C(COc3ccc4ccccc4n3)CC3CC2C3)c(-c2ccccc2)s1 (stereo not shown) [Example 56] | 7.12 | 7.98 | – | – |
